The text below walks through data of PubChem BioAssay (NCI).

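Step 1: Grow cells in 96-well plates. Step 2: Expose to compound for 48 hours at 5 concentrations. Step 3: Interpolate endpoints linearly; if unreached, use highest concentration. GI50 is the concentration that inhibits growth by half. TGI: total growth inhibition.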 Where only a bound is given, the exact number is not on record here.

Among the test systems are CAKI-1 renal; SK-OV-3 ovarian; SF-268 CNS; OVCAR-3 ovarian; ACHN renal; KM12 colon; SF-539 CNS; UO-31 renal; HS 578T breast; DU-145 prostate.
What all share (experiment): NCI anticancer screen, dose series, 48 h

Take `COC(=O)c1c[nH]cc1CCc1c[nH]cc1C(=O)OC`: the TGI in the assay on CAKI-1 renal, in the assay with SK-OV-3 ovarian, in the assay with SF-268 CNS, in the assay with OVCAR-3 ovarian, with ACHN renal and with KM12 colon was above 100 µM throughout. For the same compound, in the assay with SF-539 CNS, the TGI was above 100 µM.

With `O=C(O)c1ccc(S(=O)(=O)c2ccccc2)c([N+](=O)[O-])c1`, the TGI with CAKI-1 renal, in the assay on UO-31 renal, with SK-OV-3 ovarian, in the assay with SF-268 CNS, with OVCAR-3 ovarian and in the assay with ACHN renal was above 100 µM throughout. Further, the TGI with KM12 colon and in the assay with SF-539 CNS was above 100 µM throughout.

For `O=C(Cc1nc2ccccc2s1)C(=O)Nc1ccc(Cl)cc1`, the TGI with CAKI-1 renal, in the assay with UO-31 renal, with SK-OV-3 ovarian, in the assay on SF-268 CNS, with OVCAR-3 ovarian and in the assay on ACHN renal was above 100 µM each time. For the same compound, the TGI in the assay on KM12 colon and in the assay with SF-539 CNS was above 100 µM each time.

On to `CC(=O)Nc1ccc(/C=C(\NC(=O)c2ccccc2)c2nc3ccc4c(c3[nH]2)C(=O)c2ccccc2C4=O)cc1`, for which the TGI was above 100 µM in the assay on CAKI-1 renal; 9.17 µM in the assay on UO-31 renal; above 100 µM in the assay with SK-OV-3 ovarian; above 100 µM in the assay on SF-268 CNS; above 100 µM with OVCAR-3 ovarian; above 100 µM in the assay on SF-539 CNS.

Consider `CC(=O)N1CCC2(C=Nc3ccccc32)CC1`, for which the TGI in the assay on CAKI-1 renal, with SK-OV-3 ovarian, in the assay with OVCAR-3 ovarian, with ACHN renal, in the assay on KM12 colon and in the assay with SF-539 CNS was above 100 µM in each case.

As to `CC1=C(C)C(=O)c2c(c(C(=O)c3ccccc3)c3nc4ccccc4n3c2C)C1=O`, the GI50 was 35.4 µM in the assay on HS 578T breast; above 100 µM in the assay on CAKI-1 renal; 63.5 µM in the assay on DU-145 prostate; above 100 µM in the assay on UO-31 renal; 28.6 µM with SF-268 CNS; above 100 µM with OVCAR-3 ovarian. The GI50 was 37.2 µM with ACHN renal, above 100 µM in the assay on KM12 colon and above 100 µM with SF-539 CNS. The TGI in the assay on HS 578T breast, with CAKI-1 renal, in the assay on DU-145 prostate, in the assay with UO-31 renal, in the assay on SF-268 CNS and in the assay on OVCAR-3 ovarian was above 100 µM each time. In addition, the TGI with ACHN renal, with KM12 colon and in the assay with SF-539 CNS was above 100 µM each time.

Consider `CSC(=S)c1ccc(C(=S)SC)cc1`, for which the TGI with CAKI-1 renal, with UO-31 renal, with SK-OV-3 ovarian, in the assay on SF-268 CNS, with OVCAR-3 ovarian and with KM12 colon was above 100 µM in each case. In the assay on SF-539 CNS, this compound came in with a TGI above 100 µM.

On to `OCCN(CCO)N=Nc1ccc(-c2nc3ccccc3[nH]2)cc1`, for which the GI50 in the assay with HS 578T breast is 23.5 µM; with CAKI-1 renal, 17 µM; in the assay with DU-145 prostate it was 20.9 µM; in the assay on UO-31 renal, 43.8 µM; in the assay on SK-OV-3 ovarian, above 100 µM; in the assay on SF-268 CNS, 3.31 µM. In addition, the GI50 was 11 µM in the assay on OVCAR-3 ovarian, 35.6 µM in the assay with ACHN renal and 16.3 µM with KM12 colon. For the same compound, the TGI with HS 578T breast was 72.8 µM; in the assay on CAKI-1 renal it was 60.6 µM; with DU-145 prostate, 46.6 µM; in the assay with UO-31 renal it was above 100 µM; in the assay on SK-OV-3 ovarian, above 100 µM; with SF-268 CNS it was 40.5 µM. The TGI with OVCAR-3 ovarian is 25.7 µM; in the assay with ACHN renal, above 100 µM; in the assay on KM12 colon it was 55.4 µM.

Regarding `CCN(CC)CCCN(c1cc(OC)cc2nccnc12)S(=O)(=O)c1ccc(C)cc1`, the TGI in the assay on CAKI-1 renal, in the assay on UO-31 renal, with SK-OV-3 ovarian, in the assay on SF-268 CNS, with OVCAR-3 ovarian and in the assay on ACHN renal was above 100 µM each time. For the same compound, the TGI in the assay on KM12 colon and in the assay with SF-539 CNS was above 100 µM in each case.

`CCCCCCCCCCCCN1C(C)=CS/C1=C\C=C\c1scc(C)[n+]1CCCCCCCCCCCC`: the GI50 with HS 578T breast is 1.77 µM; with CAKI-1 renal it was 1.74 µM; in the assay on DU-145 prostate, 2.38 µM; with UO-31 renal, 2.4 µM; in the assay on SK-OV-3 ovarian it was 2.74 µM; in the assay on SF-268 CNS it was 1.98 µM. Further, the figures for the GI50 in the assay with OVCAR-3 ovarian, in the assay on ACHN renal and in the assay on SF-539 CNS were 1.24 µM, 1.84 µM and 2.02 µM, respectively. In addition, the TGI with HS 578T breast turned out to be 6.62 µM; in the assay with CAKI-1 renal, 12.8 µM; with DU-145 prostate, 10.5 µM; in the assay on UO-31 renal, 12.4 µM; in the assay on SK-OV-3 ovarian, 22.9 µM; in the assay on SF-268 CNS, 5.7 µM. The TGI was 3.69 µM with OVCAR-3 ovarian, 10.4 µM with ACHN renal and 8.69 µM in the assay with SF-539 CNS.

For the compound `CCCN1C(=O)C/C(=C\C(C)=O)Nc2ccccc21`, the TGI with CAKI-1 renal, in the assay on UO-31 renal, in the assay with SK-OV-3 ovarian, in the assay with SF-268 CNS, with OVCAR-3 ovarian and in the assay with ACHN renal was above 100 µM in each case. For the same compound, the TGI in the assay with KM12 colon and in the assay on SF-539 CNS was above 100 µM throughout.

Turning to `CCn1c(=O)c(-c2ccn[nH]2)cc2c(C)nc(N)nc21`, the GI50 with HS 578T breast was 0.35 µM; in the assay with DU-145 prostate, 2.34 µM; in the assay on UO-31 renal it was 0.291 µM; in the assay on SK-OV-3 ovarian it was 0.698 µM; with SF-268 CNS, 1.53 µM; in the assay with OVCAR-3 ovarian it was 1.15 µM. The values for the GI50 in the assay on ACHN renal, in the assay with KM12 colon and in the assay with SF-539 CNS were 1.49 µM, 3.3 µM and 1.77 µM, respectively. For the same compound, the TGI in the assay with HS 578T breast is 2.38 µM; in the assay with DU-145 prostate it was above 100 µM; with UO-31 renal, 3.72 µM; with SK-OV-3 ovarian, 3.4 µM; with SF-268 CNS, above 100 µM; in the assay with OVCAR-3 ovarian, above 100 µM. Further, the TGI in the assay on ACHN renal was above 100 µM; in the assay on KM12 colon, above 100 µM; with SF-539 CNS, 10.1 µM.
